pIC50: −log10 of the molar value.
Assay: Inhibition of recombinant perforin-mediated lysis of human Jurkat T cells by 51Cr release assay

| SMILES | pIC50 |
| --- | --- |
| COc1ccc2oc(/C=C3\OC(=O)c4c3cc(C)[nH]c4=S)cc2c1 [(Z)-1-((5-Methoxybenzofuran-2-yl)methylene)-6-methyl-4-thioxo-4,5-dihydrofuro[3,4-c]pyridin-3(1H)-one] | 5.62 |
| Cc1cc2c(c(=S)[nH]1)C(=O)O/C2=C\c1ccc(F)cc1 [(Z)-1-(4-Fluorobenzylidene)-6-methyl-4-thioxo-4,5-dihydrofuro[3,4-c]pyridin-3(1H)-one] | < 4.70 |
| Cc1cc2c(c(=S)[nH]1)C(=O)O/C2=C\c1c[nH]c2ccccc12 [(Z)-1-((1H-Indol-3-yl)methylene)-6-methyl-4-thioxo-4,5-dihydrofuro[3,4-c]pyridin-3(1H)-one] | < 4.70 |
| Cc1cc2c(c(=S)[nH]1)C(=O)O/C2=C\c1ccc(Cl)cc1 [(Z)-1-(4-Chlorobenzylidene)-6-methyl-4-thioxo-4,5-dihydrofuro[3,4-c]pyridin-3(1H)-one] | < 4.70 |
| COc1cccc2oc(/C=C3\OC(=O)c4c3cc(C)[nH]c4=S)cc12 [(Z)-1-((4-Methoxybenzofuran-2-yl)methylene)-6-methyl-4-thioxo-4,5-dihydrofuro[3,4-c]pyridin-3(1H)-one] | 5.17 |
| COc1ccc2c(/C=C3\OC(=O)c4c3cc(C)[nH]c4=S)csc2c1 [(Z)-1-((6-Methoxybenzo[b]thiophen-3-yl)methylene)-6-methyl-4-thioxo-4,5-dihydrofuro[3,4-c]pyridin-3(1H)-one] | 5.33 |
| Cc1cc2c(c(=S)[nH]1)C(=O)O/C2=C\c1cc2cc(OCc3ccccc3)ccc2[nH]1 [(Z)-1-((5-(Benzyloxy)-1H-indol-2-yl)methylene)-6-methyl-4-thioxo-4,5-dihydrofuro[3,4-c]pyridin-3(1H)-one] | < 4.70 |
| Cc1cc2c(c(=S)[nH]1)C(=O)O/C2=C\c1ccco1 [(Z)-1-(Furan-2-ylmethylene)-6-methyl-4-thioxo-4,5-dihydrofuro[3,4-c]pyridin-3(1H)-one] | 5.36 |
| Cc1cc2c(c(=S)[nH]1)C(=O)O/C2=C\c1cc2ccccc2s1 [(Z)-1-(Benzo[b]thiophen-2-ylmethylene)-6-methyl-4-thioxo-4,5-dihydrofuro[3,4-c]pyridin-3(1H)-one] | 5.02 |
| COc1cc2cc(/C=C3\OC(=O)c4c3cc(C)[nH]c4=S)oc2cc1OCc1ccccc1 [(Z)-1-((6-(Benzyloxy)-5-methoxybenzofuran-2-yl)methylene)-6-methyl-4-thioxo-4,5-dihydrofuro[3,4-c]pyridin-3(1H)-one] | 5.29 |
| Cc1cc2c(c(=S)[nH]1)C(=O)O/C2=C\c1ncc[nH]1 [(Z)-1-((1H-Imidazol-2-yl)methylene)-6-methyl-4-thioxo-4,5-dihydrofuro[3,4-c]pyridin-3(1H)-one] | < 4.70 |
| COc1ccc2cc(/C=C3\OC(=O)c4c3cc(C)[nH]c4=S)[nH]c2c1 [(Z)-1-((6-Methoxy-1H-indol-2-yl)methylene)-6-methyl-4-thioxo-4,5-dihydrofuro[3,4-c]pyridin-3(1H)-one] | 5.51 |
| Cc1cc2c(c(=O)[nH]1)C(=O)O/C2=C\c1cc2ccccc2s1 [(Z)-1-(Benzo[b]thiophen-2-ylmethylene)-6-methylfuro[3,4-c]pyridine-3,4(1H,5H)-dione] | 5.34 |
| Cc1cc2c(c(=O)[nH]1)C(=O)O/C2=C\c1csc2ccccc12 [(Z)-1-(Benzo[b]thiophen-3-ylmethylene)-6-methylfuro[3,4-c]pyridine-3,4(1H,5H)-dione] | 5.07 |
| Cc1cc2c(c(=S)[nH]1)C(=O)O/C2=C\c1ccccc1 [(Z)-1-Benzylidene-6-methyl-4-thioxo-4,5-dihydrofuro[3,4-c]pyridin-3(1H)-one] | < 4.70 |
| COc1ccc2[nH]c(/C=C3\OC(=O)c4c3cc(C)[nH]c4=S)cc2c1 [(Z)-1-((5-Methoxy-1H-indol-2-yl)methylene)-6-methyl-4-thioxo-4,5-dihydrofuro[3,4-c]pyridin-3(1H)-one] | 5.34 |
| Cc1cc2c(c(=S)[nH]1)C(=O)O/C2=C\c1ccc(N(C)C)cc1 [(Z)-1-(4-(Dimethylamino)benzylidene)-6-methyl-4-thioxo-4,5-dihydrofuro[3,4-c]pyridin-3(1H)-one] | < 4.70 |
| Cc1cc2c(c(=S)[nH]1)C(=O)O/C2=C\c1coc2ccccc12 [(Z)-1-(Benzofuran-3-ylmethylene)-6-methyl-4-thioxo-4,5-dihydrofuro[3,4-c]pyridin-3(1H)-one] | < 4.70 |
| Cc1cc2c(c(=S)[nH]1)C(=O)O/C2=C\c1csc2ccc(Br)cc12 [(Z)-1-((5-Bromobenzo[b]thiophen-3-yl)methylene)-6-methyl-4-thioxo-4,5-dihydrofuro[3,4-c]pyridin-3(1H)-one] | 5.12 |
| COc1cccc2cc(/C=C3\OC(=O)c4c3cc(C)[nH]c4=S)oc12 [(Z)-1-((7-Methoxybenzofuran-2-yl)methylene)-6-methyl-4-thioxo-4,5-dihydrofuro[3,4-c]pyridin-3(1H)-one] | 5.52 |
| Cc1cc2c(c(=S)[nH]1)C(=O)O/C2=C\c1cccc2cc[nH]c12 [(Z)-1-((1H-Indol-7-yl)methylene)-6-methyl-4-thioxo-4,5-dihydrofuro[3,4-c]pyridin-3(1H)-one] | 5.39 |
| COc1ccc2scc(/C=C3\OC(=O)c4c3cc(C)[nH]c4=S)c2c1 [(Z)-1-((5-Methoxybenzo[b]thiophen-3-yl)methylene)-6-methyl-4-thioxo-4,5-dihydrofuro[3,4-c]pyridin-3(1H)-one] | 5.29 |
| COc1ccc2cc(/C=C3\OC(=O)c4c3cc(C)[nH]c4=S)sc2c1 [(Z)-1-((6-Methoxybenzo[b]thiophen-2-yl)methylene)-6-methyl-4-thioxo-4,5-dihydrofuro[3,4-c]pyridin-3(1H)-one] | 5.27 |
| COc1ccc2cc(/C=C3\OC(=O)c4c3cc(C)[nH]c4=S)oc2c1 [(Z)-1-((6-Methoxybenzofuran-2-yl)methylene)-6-methyl-4-thioxo-4,5-dihydrofuro[3,4-c]pyridin-3(1H)-one] | 5.14 |
| Cc1cc2c(c(=O)[nH]1)C(=O)O/C2=C\c1ccc[nH]1 [(Z)-1-((1H-Pyrrol-2-yl)methylene)-6-methylfuro[3,4-c]pyridine-3,4(1H,5H)-dione] | < 4.70 |
| Cc1cc2c(c(=S)[nH]1)C(=O)O/C2=C\c1ccc[nH]1 [(Z)-1-((1H-Pyrrol-2-yl)methylene)-6-methyl-4-thioxo-4,5-dihydrofuro[3,4-c]pyridin-3(1H)-one] | < 4.70 |

Other lines, results leading:

| pIC50 | SMILES |
| --- | --- |
| < 4.70 | CSc1ccc(/C=C2\OC(=O)c3c2cc(C)[nH]c3=S)cc1 [(Z)-6-Methyl-1-(4-(methylthio)benzylidene)-4-thioxo-4,5-dihydrofuro[3,4-c]pyridin-3(1H)-one] |
| < 4.70 | Cc1cc2c(c(=S)[nH]1)C(=O)O/C2=C\c1csc(-c2ccccc2)c1 [(Z)-6-Methyl-1-((5-phenylthiophen-3-yl)methylene)-4-thioxo-4,5-dihydrofuro[3,4-c]pyridin-3(1H)-one] |
| < 4.70 | Cc1cc2c(c(=S)[nH]1)C(=O)O/C2=C\c1ccc(OC(F)(F)F)cc1 [(Z)-6-Methyl-4-thioxo-1-(4-(trifluoromethoxy)benzylidene)-4,5-dihydrofuro[3,4-c]pyridin-3(1H)-one] |
| < 4.70 | Cc1cc2c(c(=O)[nH]1)C(=O)O/C2=C\c1ccc(C)o1 [(Z)-6-Methyl-1-((5-methylfuran-2-yl)methylene)furo[3,4-c]pyridine-3,4(1H,5H)-dione] |
| < 4.70 | Cc1cc2c(c(=S)[nH]1)C(=O)O/C2=C\c1cccn1C [(Z)-6-Methyl-1-((1-methyl-1H-pyrrol-2-yl)methylene)-4-thioxo-a4,5-dihydrofuro[3,4-c]pyridin-3(1H)-one] |
| < 4.70 | Cc1cc2c(c(=O)[nH]1)C(=O)O/C2=C\c1cn(C)c2ccccc12 [(Z)-6-Methyl-1-((1-methyl-1H-indol-3-yl)methylene)furo[3,4-c]pyridine-3,4(1H,5H)-dione] |
| 5.37 | Cc1cc2c(c(=S)[nH]1)C(=O)O/C2=C\c1cn(C)c2ccccc12 [(Z)-6-Methyl-1-((1-methyl-1H-indol-3-yl)methylene)-4-thioxo-4,5-dihydrofuro[3,4-c]pyridin-3(1H)-one] |
| 5.42 | COc1cccc2scc(/C=C3\OC(=O)c4c3cc(C)[nH]c4=S)c12 [(Z)-1-[(4-Methoxy-1-benzothien-3-yl)methylene]-6-methyl-4-thioxo-4,5-dihydrofuro[3,4-c]pyridine-3(1H)-one] |
| < 4.70 | CC(=O)Nc1ccc(/C=C2\OC(=O)c3c2cc(C)[nH]c3=S)cc1 [(Z)-N-(4-((6-Methyl-3-oxo-4-thioxo-4,5-dihydrofuro[3,4-c]pyridin-1(3H)-ylidene)methyl)phenyl)acetamide] |
| < 4.70 | Cc1cc2c(c(=S)[nH]1)C(=O)O/C2=C\c1cc2ccccc2n1C [(Z)-6-Methyl-1-((1-methyl-1H-indol-2-yl)methylene)-4-thioxo-4,5-dihydrofuro[3,4-c]pyridin-3(1H)-one] |
| 5.40 | Cc1cc2c(c(=S)[nH]1)C(=O)O/C2=C\c1ccc(-c2ccccc2)o1 [(Z)-6-Methyl-1-((5-phenylfuran-2-yl)methylene)-4-thioxo-4,5-dihydrofuro[3,4-c]pyridin-3(1H)-one] |
| < 4.70 | Cc1ccc(/C=C2\OC(=O)c3c2cc(C)[nH]c3=S)cc1 [(Z)-6-Methyl-1-(4-methylbenzylidene)-4-thioxo-4,5-dihydrofuro[3,4-c]pyridin-3(1H)-one] |
| < 4.70 | Cc1cc2c(c(=S)[nH]1)C(=O)O/C2=C\c1ccsc1 [(Z)-6-Methyl-1-(thiophen-3-ylmethylene)-4-thioxo-4,5-dihydrofuro[3,4-c]pyridin-3(1H)-one] |
| 5.30 | Cc1cc2c(c(=O)[nH]1)C(=O)O/C2=C\c1ccc(-c2ccccc2)s1 [(Z)-6-Methyl-1-((5-phenylthiophen-2-yl)methylene)furo[3,4-c]pyridine-3,4(1H,5H)-dione] |
| 5.14 | Cc1cc2c(c(=S)[nH]1)C(=O)O/C2=C\c1ccc(C)s1 [(Z)-6-Methyl-1-((5-methylthiophen-2-yl)methylene)-4-thioxo-4,5-dihydrofuro[3,4-c]pyridin-3(1H)-one] |
| < 4.70 | Cc1cc2c(c(=S)[nH]1)C(=O)O/C2=C\c1ccc(C(F)(F)F)cc1 [(Z)-6-Methyl-4-thioxo-1-(4-(trifluoromethyl)benzylidene)-4,5-dihydrofuro[3,4-c]pyridin-3(1H)-one] |
| 5.07 | Cc1cc2c(c(=S)[nH]1)C(=O)O/C2=C\c1cccs1 [(Z)-6-Methyl-1-(thiophen-2-ylmethylene)-4-thioxo-4,5-dihydrofuro[3,4-c]pyridin-3(1H)-one] |
